Results as given in ChEMBL document CHEMBL3991601, “The target landscape of clinical kinase drugs” (Science, 2017).
Activity calls are given as the source filed them.

How the values were obtained:
[1] = target: T1, Serine/threonine-protein kinase PLK4 (Homo sapiens, UniProt O00444)
T1 sequence (O00444 whole entry): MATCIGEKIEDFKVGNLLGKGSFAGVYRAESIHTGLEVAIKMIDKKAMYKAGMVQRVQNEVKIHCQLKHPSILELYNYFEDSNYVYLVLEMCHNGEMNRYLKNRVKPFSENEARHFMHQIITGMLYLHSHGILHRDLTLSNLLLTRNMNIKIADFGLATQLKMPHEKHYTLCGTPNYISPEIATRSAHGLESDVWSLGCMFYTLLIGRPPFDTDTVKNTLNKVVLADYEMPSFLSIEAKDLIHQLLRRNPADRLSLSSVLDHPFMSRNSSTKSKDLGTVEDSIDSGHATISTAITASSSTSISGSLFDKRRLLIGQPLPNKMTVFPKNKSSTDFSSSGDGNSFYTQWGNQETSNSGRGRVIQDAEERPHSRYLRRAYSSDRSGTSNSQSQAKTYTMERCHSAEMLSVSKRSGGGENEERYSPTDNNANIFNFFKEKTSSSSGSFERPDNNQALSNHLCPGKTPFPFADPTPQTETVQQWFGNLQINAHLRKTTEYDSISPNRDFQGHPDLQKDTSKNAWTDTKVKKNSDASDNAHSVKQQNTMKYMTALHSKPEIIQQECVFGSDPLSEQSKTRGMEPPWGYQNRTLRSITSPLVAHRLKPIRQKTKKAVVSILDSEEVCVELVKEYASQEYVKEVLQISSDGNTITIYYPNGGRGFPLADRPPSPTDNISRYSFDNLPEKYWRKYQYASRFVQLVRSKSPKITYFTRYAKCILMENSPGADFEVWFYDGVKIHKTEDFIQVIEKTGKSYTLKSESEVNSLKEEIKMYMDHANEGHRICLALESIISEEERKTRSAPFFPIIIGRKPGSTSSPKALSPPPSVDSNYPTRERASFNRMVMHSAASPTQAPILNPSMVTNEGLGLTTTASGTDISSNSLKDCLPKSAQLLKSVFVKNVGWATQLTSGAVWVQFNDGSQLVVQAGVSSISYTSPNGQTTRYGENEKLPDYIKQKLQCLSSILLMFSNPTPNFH

[2] = target: Rho-associated protein kinase 2 (Homo sapiens, UniProt O75116)
Sequence of Rho-associated protein kinase 2 (O75116 whole entry, the tested form may be a part): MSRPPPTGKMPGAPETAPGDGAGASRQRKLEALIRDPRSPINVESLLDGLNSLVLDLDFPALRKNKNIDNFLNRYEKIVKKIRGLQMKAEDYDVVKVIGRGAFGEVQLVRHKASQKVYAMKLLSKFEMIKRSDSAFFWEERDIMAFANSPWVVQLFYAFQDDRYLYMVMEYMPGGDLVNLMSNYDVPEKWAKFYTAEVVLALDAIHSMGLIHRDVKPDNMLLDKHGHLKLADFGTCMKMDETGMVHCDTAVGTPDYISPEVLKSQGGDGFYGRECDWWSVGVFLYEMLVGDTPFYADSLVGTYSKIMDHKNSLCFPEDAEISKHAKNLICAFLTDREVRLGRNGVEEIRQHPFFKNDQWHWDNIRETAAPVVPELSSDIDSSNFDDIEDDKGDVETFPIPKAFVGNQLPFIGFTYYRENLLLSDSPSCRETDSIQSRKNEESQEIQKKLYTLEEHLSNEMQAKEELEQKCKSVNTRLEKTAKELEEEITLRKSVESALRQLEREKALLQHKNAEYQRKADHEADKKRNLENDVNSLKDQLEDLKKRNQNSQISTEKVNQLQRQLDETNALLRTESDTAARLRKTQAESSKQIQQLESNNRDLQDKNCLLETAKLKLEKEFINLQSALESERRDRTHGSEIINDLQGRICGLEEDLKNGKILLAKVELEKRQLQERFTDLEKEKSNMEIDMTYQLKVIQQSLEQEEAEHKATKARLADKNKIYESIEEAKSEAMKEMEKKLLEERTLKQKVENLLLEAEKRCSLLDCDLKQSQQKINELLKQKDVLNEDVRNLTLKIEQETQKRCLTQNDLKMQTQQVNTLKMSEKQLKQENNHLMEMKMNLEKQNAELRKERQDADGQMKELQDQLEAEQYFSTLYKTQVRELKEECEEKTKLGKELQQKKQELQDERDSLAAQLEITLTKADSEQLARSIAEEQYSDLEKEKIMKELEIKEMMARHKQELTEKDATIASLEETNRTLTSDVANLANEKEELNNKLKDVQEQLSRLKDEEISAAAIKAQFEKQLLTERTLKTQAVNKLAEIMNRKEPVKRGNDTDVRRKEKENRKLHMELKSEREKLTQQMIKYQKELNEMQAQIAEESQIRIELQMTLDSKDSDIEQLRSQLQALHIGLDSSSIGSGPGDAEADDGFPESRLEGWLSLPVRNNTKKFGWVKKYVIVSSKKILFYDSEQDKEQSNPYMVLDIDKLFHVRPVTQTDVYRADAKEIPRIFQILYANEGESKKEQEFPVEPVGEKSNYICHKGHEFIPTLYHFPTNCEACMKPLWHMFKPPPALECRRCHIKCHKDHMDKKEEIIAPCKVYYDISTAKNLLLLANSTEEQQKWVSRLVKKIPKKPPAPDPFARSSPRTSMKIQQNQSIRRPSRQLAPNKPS

[3] = target: T2, AarF domain-containing protein kinase 1 (Homo sapiens, UniProt Q86TW2)
T2 sequence (Q86TW2 whole entry): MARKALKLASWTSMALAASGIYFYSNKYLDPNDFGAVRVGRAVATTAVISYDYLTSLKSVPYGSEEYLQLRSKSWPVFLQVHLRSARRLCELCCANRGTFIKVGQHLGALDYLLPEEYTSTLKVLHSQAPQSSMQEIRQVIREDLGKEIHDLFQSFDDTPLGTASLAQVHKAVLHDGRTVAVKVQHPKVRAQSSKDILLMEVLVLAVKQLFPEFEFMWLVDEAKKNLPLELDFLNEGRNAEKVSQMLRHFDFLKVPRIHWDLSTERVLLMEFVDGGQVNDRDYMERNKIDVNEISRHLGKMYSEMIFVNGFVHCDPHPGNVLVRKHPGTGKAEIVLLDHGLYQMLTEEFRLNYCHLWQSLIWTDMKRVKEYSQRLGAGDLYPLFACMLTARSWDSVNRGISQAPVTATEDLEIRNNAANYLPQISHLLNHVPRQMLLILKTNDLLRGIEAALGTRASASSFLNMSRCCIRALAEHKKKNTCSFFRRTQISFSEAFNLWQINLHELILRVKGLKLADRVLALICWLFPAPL

[4] = target: Putative heat shock protein HSP 90-beta 2 (Homo sapiens, UniProt Q58FF8)
Sequence of Putative heat shock protein HSP 90-beta 2 (Q58FF8 whole entry): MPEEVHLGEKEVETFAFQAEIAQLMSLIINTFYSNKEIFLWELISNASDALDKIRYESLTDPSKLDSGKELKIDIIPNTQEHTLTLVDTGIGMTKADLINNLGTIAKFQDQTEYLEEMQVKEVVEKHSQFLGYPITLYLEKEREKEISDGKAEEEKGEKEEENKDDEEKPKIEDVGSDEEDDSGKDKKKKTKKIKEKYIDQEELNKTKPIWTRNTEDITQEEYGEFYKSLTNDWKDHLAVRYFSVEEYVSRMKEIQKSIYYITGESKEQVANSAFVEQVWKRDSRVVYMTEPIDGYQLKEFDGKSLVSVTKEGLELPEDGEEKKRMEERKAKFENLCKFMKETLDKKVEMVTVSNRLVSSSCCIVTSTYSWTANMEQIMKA

[5] = target: T3, Electron transfer flavoprotein subunit beta (Homo sapiens, UniProt P38117)
T3 sequence (P38117 whole entry): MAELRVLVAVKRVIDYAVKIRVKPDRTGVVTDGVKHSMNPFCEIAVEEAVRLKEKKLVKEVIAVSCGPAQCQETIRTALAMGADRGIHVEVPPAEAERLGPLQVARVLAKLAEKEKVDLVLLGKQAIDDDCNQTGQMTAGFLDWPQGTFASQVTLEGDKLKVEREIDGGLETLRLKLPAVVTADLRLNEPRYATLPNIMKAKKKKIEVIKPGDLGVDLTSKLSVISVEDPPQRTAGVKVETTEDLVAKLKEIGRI

[6] = target: T4, Serine/threonine-protein kinase Nek2 (Homo sapiens, UniProt P51955)
T4 sequence (P51955 whole entry): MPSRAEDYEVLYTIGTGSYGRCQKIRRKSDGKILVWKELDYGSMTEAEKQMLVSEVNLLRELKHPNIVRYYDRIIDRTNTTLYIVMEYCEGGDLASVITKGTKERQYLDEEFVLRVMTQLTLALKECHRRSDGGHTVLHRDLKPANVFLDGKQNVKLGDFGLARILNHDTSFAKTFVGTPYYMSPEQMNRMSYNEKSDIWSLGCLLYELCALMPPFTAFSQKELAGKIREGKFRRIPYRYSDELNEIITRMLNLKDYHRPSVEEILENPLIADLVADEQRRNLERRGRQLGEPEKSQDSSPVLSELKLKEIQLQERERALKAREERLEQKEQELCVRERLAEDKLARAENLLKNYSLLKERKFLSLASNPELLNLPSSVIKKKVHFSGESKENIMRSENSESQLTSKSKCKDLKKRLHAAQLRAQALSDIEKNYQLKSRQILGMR
Also: in the data inactive means no Kd found up to 30 µM.

| Compound | Kd [1] | Kd [2] | Kd [3] | Kd [4] | Kd [5] | Kd [6] |
| --- | --- | --- | --- | --- | --- | --- |
| C[C@@H]1CN(Cc2ccc(F)cc2)[C@@H](C)CN1C(=O)c1cc2c(C(=O)C(=O)N(C)C)cn(C)c2cc1Cl [TALMAPIMOD] | > 30 µM (inactive) | > 30 µM (inactive) | > 30 µM (inactive) | > 30 µM (inactive) | > 30 µM (inactive) | > 30 µM (inactive) |
| CO[C@H]1C[C@@H]2CC[C@@H](C)[C@@](O)(O2)C(=O)C(=O)N2CCCC[C@H]2C(=O)O[C@H]([C@H](C)C[C@@H]2CC[C@@H](OCCO)[C@H](OC)C2)CC(=O)[C@H](C)/C=C(\C)[C@@H](O)[C@@H](OC)C(=O)[C@H](C)C[C@H](C)/C=C/C=C/C=C/1C [EVEROLIMUS] | > 30 µM (inactive) | > 30 µM (inactive) | > 30 µM (inactive) | > 30 µM (inactive) | > 30 µM (inactive) | > 30 µM (inactive) |
| COC(=O)[C@@]1(O)C[C@H]2O[C@]1(C)n1c3ccccc3c3c4c(c5c6ccccc6n2c5c31)C(=O)NC4 [K-252A] | 0.073 µM (active) | > 30 µM (inactive) | 6.09 µM (active) | > 30 µM (inactive) | > 30 µM (inactive) | > 30 µM (inactive) |
| COc1ccc(-c2ccc3c(N4CCOC[C@@H]4C)nc(N4CCOC[C@@H]4C)nc3n2)cc1CO [AZD-8055] | > 30 µM (inactive) | > 30 µM (inactive) | > 30 µM (inactive) | > 30 µM (inactive) | > 30 µM (inactive) | > 30 µM (inactive) |
| O=C(O)[C@]1(Cc2cccc(Nc3nccs3)n2)CC[C@@H](Oc2cccc(Cl)c2F)CC1 [MK-5108] | 0.183 µM (active) | > 30 µM (inactive) | > 30 µM (inactive) | > 30 µM (inactive) | > 30 µM (inactive) | > 30 µM (inactive) |
| Cc1ccc(-n2nc(C(C)(C)C)cc2NC(=O)NCc2cc(F)ccc2Oc2ccc3c(cnn3CCO)c2)cc1 [PEXMETINIB] | > 30 µM (inactive) | > 30 µM (inactive) | > 30 µM (inactive) | > 30 µM (inactive) | > 30 µM (inactive) | > 30 µM (inactive) |

Next, values leading:

| Kd [1] | Kd [2] | Kd [3] | Kd [4] | Kd [5] | Kd [6] | Compound |
| --- | --- | --- | --- | --- | --- | --- |
| > 30 µM (inactive) | > 30 µM (inactive) | > 30 µM (inactive) | > 30 µM (inactive) | > 30 µM (inactive) | > 30 µM (inactive) | COc1cc2nccc(Oc3ccc(NC(=O)Nc4cc(C)on4)c(Cl)c3)c2cc1OC [TIVOZANIB] |
| > 30 µM (inactive) | > 30 µM (inactive) | > 30 µM (inactive) | > 30 µM (inactive) | > 30 µM (inactive) | > 30 µM (inactive) | Cc1ccc(NC(=O)c2ccc(CN3CC[C@H](N(C)C)C3)c(C(F)(F)F)c2)cc1Nc1nccc(-c2cncnc2)n1 [BAFETINIB] |
| > 30 µM (inactive) | > 30 µM (inactive) | > 30 µM (inactive) | > 30 µM (inactive) | > 30 µM (inactive) | > 30 µM (inactive) | CNC(=O)c1ccc(-c2cnc3ncc(Cc4ccc5ncccc5c4)n3n2)cc1F [CAPMATINIB] |
